Assay results: ChEMBL document CHEMBL4265916, “Synthesis and antiproliferative activities of novel quartenary ammonium spinosyn derivatives” (Bioorg Med Chem Lett, 2018)
Active and inactive are the calls of the source. The calls are words filed in the database; no cut-off is given here.

Assays:
MCF7 [1] = experiment: Antiproliferative activity against human MCF7 cells at 50 uM after 48 hrs by MTT assay; type: functional
NCI-H460 [2] = experiment: Induction of apoptosis in human NCI-H460 cells assessed as early apoptotic cells at 32 uM after 48 hrs by Annexin V-FITC/propidium iodide staining-based flow cytometric analysis (reference value: 2.17%); type: functional
MCF7 [3] = experiment: Antiproliferative activity against human MCF7 cells after 48 hrs by MTT assay; type: functional, cell-based; settings: MCF7, 48 h
NCI-H460 [4] = experiment: Induction of apoptosis in human NCI-H460 cells assessed as late apoptotic cells at 64 uM after 48 hrs by Annexin V-FITC/propidium iodide staining-based flow cytometric analysis (reference value: 1.80%); type: functional
NCI-H460 [5] = experiment: Antiproliferative activity against human NCI-H460 cells after 48 hrs by MTT assay; type: functional, cell-based; settings: NCI-H460, 48 h
NCI-H460 [6] = experiment: Induction of apoptosis in human NCI-H460 cells assessed as viable cells at 32 uM after 48 hrs by Annexin V-FITC/propidium iodide staining-based flow cytometric analysis (reference value: 93.9%); type: functional; settings: NCI-H460, 48 h, read-out: Activity
NCI-H460 [7] = experiment: Induction of apoptosis in human NCI-H460 cells assessed as necrotic cells at 64 uM after 48 hrs by Annexin V-FITC/propidium iodide staining-based flow cytometric analysis (reference value: 2.11%); type: functional
NCI-H460 [8] = experiment: Growth inhibition of human NCI-H460 cells at 32 uM after 48 hrs by MTT assay; type: functional, cell-based
NCI-H460 [9] = experiment: Induction of apoptosis in human NCI-H460 cells assessed as viable cells at 64 uM after 48 hrs by Annexin V-FITC/propidium iodide staining-based flow cytometric analysis (reference value: 93.9%); type: functional; settings: NCI-H460, 48 h, read-out: Activity
NCI-H460 [10] = experiment: Inhibition of oxygen consumption rate in human NCI-H460 cells at 32 uM after 1 hr; type: functional
NCI-H460 [11] = experiment: Induction of apoptosis in human NCI-H460 cells after 48 hrs by Annexin V-FITC/propidium iodide staining-based flow cytometric analysis; type: functional, cell-based
HCT-116 = experiment: Antiproliferative activity against human HCT116 cells after 48 hrs by MTT assay; type: functional, cell-based; settings: HCT-116, 48 h
NCI-H460 [12] = experiment: Induction of apoptosis in human NCI-H460 cells assessed as late apoptotic cells at 32 uM after 48 hrs by Annexin V-FITC/propidium iodide staining-based flow cytometric analysis (reference value: 1.80%); type: functional
U-87 MG = experiment: Antiproliferative activity against human U87MG cells after 48 hrs by MTT assay; type: functional, cell-based, U-87MG ATCC
NCI-H460 [13] = experiment: Induction of apoptosis in human NCI-H460 cells assessed as early apoptotic cells at 64 uM after 48 hrs by Annexin V-FITC/propidium iodide staining-based flow cytometric analysis (reference value: 2.17%); type: functional
NCI-H460 [14] = experiment: Induction of apoptosis in human NCI-H460 cells assessed as necrotic cells at 32 uM after 48 hrs by Annexin V-FITC/propidium iodide staining-based flow cytometric analysis (reference value: 2.11%); type: functional

**Q.** Which results are given for `CC[C@H]1CCC[C@H](O[C@H]2CC[C@H](N(C)C)[C@@H](C)O2)[C@@H](C)C(=O)C2=C[C@@H]3[C@@H](C=C[C@@H]4C[C@@H](O[C@@H]5O[C@@H](C)[C@H](OC)[C@@H](OC)[C@H]5OC)C[C@@H]34)[C@@H]2CC(=O)O1` [SPINOSYN A]?
**A.** Activity (MCF7 [1]): 92.6%; Activity (NCI-H460 [2]): 3.11%; IC50 (MCF7 [3]): 16.7 µM; Activity (NCI-H460 [4]): 5.33%; IC50 (NCI-H460 [5]): 66 µM; viability at 32 µM (NCI-H460 [6]): 90.8%; Activity (NCI-H460 [7]): 2.33%; growth inhibition (GI) (NCI-H460 [8]): inactive; viability at 64 µM (NCI-H460 [9]): 87.8%; inhibition (NCI-H460 [10]): Active; Activity (NCI-H460 [11]): Dose-dependent effect; IC50 (HCT-116): 10.7 µM; Activity (NCI-H460 [12]): 4.41%; IC50 (U-87 MG): 104 µM; Activity (NCI-H460 [13]): 4.53%; Activity (NCI-H460 [14]): 1.69%
